In US20250163052A1, “cGAS INHIBITORS AND USES THEREOF” (Cornell University, priority 2022, published 2025):

Key:
m-cGAS = m-cGAS (Mus musculus, UniProt Q8C6L5); assay: Cell-free mouse cGAS enzyme inhibition assay (ATP depletion, Kinase-Glo Max); type: biochemical; settings: 1 h; for inhibition at 10 µM: read-out: m-cGAS, conc. 10 μM; for inhibition at 1 µM: read-out: m-cGAS, conc. 1 μM
Protocol: (§1) Cell-free mouse and human cGAS enzyme inhibition assay (Table 2). Activity of all compounds (in Table 1) against m-cGAS (30 nM) and or h-cGAS, (100 nM) was determined by measuring the conversion of ATP and GTP (100 μM each) to cGAMP in the presence of dsDNA (5 ug/mL) in a reaction buffer composed of Tris-HCl (20 mM, pH7.4), NaCl (150 mM), MnCl2 (0.2 mM, h-cGAS) or MgCl2 (5 mM, m-cGAS) and Tween-20 (0.01%), and the remaining ATP concentration using Kinase-Glo®Max Luminescent Kinase Assay (Promega, Madison, WI), as described (Lama, et. al., 2019). Briefly, 10 μl of a master mix of 0.4 mM ATP, 0.4 mM GTP, 0.02 mg/mL dsDNA in the reaction buffer supplemented with 2 mM DTT was added to reaction wells containing TDI-6570 or TDI-8246 (2× of the desired concentration) in the same buffer ([…]) using a Thermo 8-channel Multidrop Combi dispenser. Next, 10 μl of a 4×m-cGAS (0.120 μM) or h-cGAS (0.4 μM) solution in the reaction buffer supplemented with 2 mM DTT was added to appropriate wells. Similar sets of reactions without cGAS or the inhibitor was set by adding the buffer alone. The reactions with the plates sealed were incubated at 37° C. (1 hour for m-cGAS and 3 hours for h-cGAS) and stopped by addition of 40 μl of the Kinase-Glo®Max. The luminescence was recorded in relative light units (RLUs) using a Biotek Synergy H1 Hybrid plate reader (BioTek, Winooski, VT). […] All reactions were run in triplicates and calculated using GraphPad Prism 9. The values represent mean IC50±S.D.

h-cGAS = h-cGAS (Homo sapiens, UniProt Q8N884); assay: Cell-free human cGAS enzyme inhibition assay (ATP depletion, Kinase-Glo Max); type: biochemical; settings: 3 h; for inhibition at 1 µM: read-out: h-cGAS, conc. 1 μM; for inhibition at 10 µM: read-out: h-cGAS, conc. 10 μM
Sequence of h-cGAS (Q8N884 whole entry): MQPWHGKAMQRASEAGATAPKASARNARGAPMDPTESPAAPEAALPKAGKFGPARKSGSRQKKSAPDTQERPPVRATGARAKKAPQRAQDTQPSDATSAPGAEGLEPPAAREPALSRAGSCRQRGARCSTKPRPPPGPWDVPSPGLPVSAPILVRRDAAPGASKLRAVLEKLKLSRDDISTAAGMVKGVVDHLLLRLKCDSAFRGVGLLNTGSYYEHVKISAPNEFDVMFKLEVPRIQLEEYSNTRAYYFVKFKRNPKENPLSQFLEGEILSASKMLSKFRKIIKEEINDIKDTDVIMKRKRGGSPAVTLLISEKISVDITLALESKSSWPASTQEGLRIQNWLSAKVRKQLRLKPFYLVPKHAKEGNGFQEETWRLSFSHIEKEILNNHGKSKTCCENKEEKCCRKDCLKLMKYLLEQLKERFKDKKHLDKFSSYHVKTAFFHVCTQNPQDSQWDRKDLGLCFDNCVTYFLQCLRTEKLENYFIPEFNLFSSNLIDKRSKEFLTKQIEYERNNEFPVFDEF
Protocol: as §1

IFNB = assay: THP1-Dual cells transfected with DNA, Ifnb expression (Quantiluc); type: cell-based; settings: Homo sapiens; for inhibition at 10 µM: THP-1, 10 μM; for inhibition at 30 µM: THP-1, 30 μM
Protocol: (§2) Evaluation of active cGAS inhibitors in THP1 cells (Table 3). Cellular activity of all compounds (in Table 3) was determined using THP1-Dual™ cells as described (Lama et. al., 2019). THP1-Dual™ cells (Invivogen) (50000 cells in 100 μl media) were seeded into each well of a 96-well plate and treated with compounds at various dilution for 4 hours. Subsequently, cells were transfected with DNA (2 ug/ml) and lipofectamine and incubate the cells were incubated overnight. Ifnb expression was measured in cell supernatant using Quantiluc, nfkb expression was determined using Quantiblue, and cell viability using Promega® CellTiter-Glo®.

NFkB-SEAP = assay: THP1-Dual cells transfected with DNA, nfkb expression (Quantiblue); type: cell-based; settings: Homo sapiens; for inhibition at 10 µM: THP-1, 10 μM; for inhibition at 30 µM: THP-1, 30 μM
Protocol: as §2

THP1 cells = assay: THP1-Dual cells, cell viability (CellTiter-Glo); type: cell-based
Protocol: as §2

Sequence of m-cGAS (Q8C6L5 whole entry): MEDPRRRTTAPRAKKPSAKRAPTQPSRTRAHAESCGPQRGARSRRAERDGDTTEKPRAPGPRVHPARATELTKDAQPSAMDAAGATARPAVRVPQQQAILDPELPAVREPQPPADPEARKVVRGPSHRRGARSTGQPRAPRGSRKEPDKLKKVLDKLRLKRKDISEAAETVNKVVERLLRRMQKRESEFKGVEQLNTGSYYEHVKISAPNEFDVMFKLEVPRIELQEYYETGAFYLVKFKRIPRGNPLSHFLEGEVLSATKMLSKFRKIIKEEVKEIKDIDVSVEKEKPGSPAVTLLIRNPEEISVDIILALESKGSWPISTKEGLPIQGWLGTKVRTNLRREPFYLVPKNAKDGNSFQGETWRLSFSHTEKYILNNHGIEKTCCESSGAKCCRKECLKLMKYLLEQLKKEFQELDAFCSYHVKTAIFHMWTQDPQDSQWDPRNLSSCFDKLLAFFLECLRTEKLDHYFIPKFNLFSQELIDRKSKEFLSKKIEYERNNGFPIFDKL

Compound | inhibition at 10 µM (m-cGAS) | inhibition at 1 µM (h-cGAS) | inhibition at 10 µM (h-cGAS) | inhibition at 10 µM (IFNB) | inhibition at 30 µM (IFNB) | inhibition at 10 µM (NFkB-SEAP) | inhibition at 30 µM (NFkB-SEAP) | Cell viability 10 μM (THP1 cells) | Cell viability 30 μM (THP1 cells) | inhibition at 1 µM (m-cGAS)
Cn1c2c(c3c(-c4ccc(N)nc4)cc(Cl)c(Cl)c31)CN(C(=O)C1CCCN1)CC2 (stereo not drawn) [Compound 17] | 0 to 24% | 25 to 49% | 75 to 100% | 25 to 49% | 75 to 100% | 25 to 49% | 75 to 100% | +++ (+, ++, and +++ mean the compound respectively shows 25-49%; 50-74%; or 75-100% viability to cells) | ++ (+, ++, and +++ mean the compound respectively shows 25-49%; 50-74%; or 75-100% viability to cells) | 
Cc1csc(-c2cc(Cl)c(Cl)c3sc4c(c23)CCN(C(=O)CN)C4)n1 [Compound 91] | 50 to 74% | 25 to 49% | 50 to 74% | 50 to 74% |  | 25 to 49% |  | ++ (+, ++, and +++ mean the compound respectively shows 25-49%; 50-74%; or 75-100% viability to cells) | − (Cell viability <24%, in THP1 cells is expressed as “−”) | 0 to 24%
CN1c2c(Cl)c(Cl)cc(-c3cncnc3)c2C2CN(C(=O)CN)CCC21 (stereo not drawn) [Compound 9] | 0 to 24% | 50 to 74% | 75 to 100% | < 24% | < 24% | < 24% | < 24% | +++ (+, ++, and +++ mean the compound respectively shows 25-49%; 50-74%; or 75-100% viability to cells) | +++ (+, ++, and +++ mean the compound respectively shows 25-49%; 50-74%; or 75-100% viability to cells) | 
NCC(=O)N1CCc2c(sc3c(Cl)c(Cl)cc(-c4cccnc4)c23)C1 [Compound 78] | 75 to 100% | 0 to 24% | 50 to 74% | 75 to 100% | 75 to 100% | 50 to 74% | 75 to 100% | + (+, ++, and +++ mean the compound respectively shows 25-49%; 50-74%; or 75-100% viability to cells) | − (Cell viability <24%, in THP1 cells is expressed as “−”) | 25 to 49%
CC(O)C(=O)N1CCc2c(c3c(-c4ccn(C)n4)cc(Cl)c(Cl)c3n2C)C1 (stereo not drawn) [Compound 4] | 0 to 24% | 25 to 49% | 75 to 100% | < 24% | 50 to 74% | < 24% | 25 to 49% | +++ (+, ++, and +++ mean the compound respectively shows 25-49%; 50-74%; or 75-100% viability to cells) | +++ (+, ++, and +++ mean the compound respectively shows 25-49%; 50-74%; or 75-100% viability to cells) | 
CC(C)(N)C(=O)N1CCc2[nH]c3c(Cl)c(Cl)cc(-c4cc[nH]n4)c3c2C1 [Compound 20] | 0 to 24% | 25 to 49% | 75 to 100% | 50 to 74% | 75 to 100% | 75 to 100% | 75 to 100% | +++ (+, ++, and +++ mean the compound respectively shows 25-49%; 50-74%; or 75-100% viability to cells) | +++ (+, ++, and +++ mean the compound respectively shows 25-49%; 50-74%; or 75-100% viability to cells) | 
Cn1ccc(-c2cc(Cl)c(Cl)c3c2c2c(n3C)CCN(C(=O)C(C)(C)O)C2)n1 [Compound 5] | 0 to 24% | 25 to 49% | 75 to 100% | < 24% | < 24% | < 24% | < 24% | +++ (+, ++, and +++ mean the compound respectively shows 25-49%; 50-74%; or 75-100% viability to cells) | +++ (+, ++, and +++ mean the compound respectively shows 25-49%; 50-74%; or 75-100% viability to cells) | 
